Reference: ChEMBL document CHEMBL6083211, “Pyrazolines inhibiting the activity of the early growth response-1 DNA-binding domain” (Bioorg Med Chem Lett, 2024)
Calls of active or inactive are those of the source.

How the values were obtained:
Assay type in all cases: cell-based
[1] = biological target: Early growth response protein 1 (Homo sapiens) (UniProt P18146); test: Inhibition of EGR-1 in TNF-alpha-stimulated human HaCaT cells assessed as decrease in IL-1beta level at 20 to 40 uM pretreated for 30 mins followed by TNF-alpha stimulation measured after 6 hrs by RT-PCR analysis; conditions: dose 20-40 µM, time 390.0 min
[2] = biological target: Early growth response protein 1 (Homo sapiens) (UniProt P18146); test: Inhibition of EGR-1 in TNF-alpha-stimulated human HaCaT cells assessed as decrease in TSLP level at 20 to 40 uM pretreated for 30 mins followed by TNF-alpha stimulation measured after 6 hrs by RT-PCR analysis; conditions: dose 20-40 µM, time 390.0 min
[3] = biological target: Early growth response protein 1 (Homo sapiens) (UniProt P18146); test: Inhibition of EGR-1 DNA binding activity in TNF-alpha-stimulated human HaCaT cells assessed as suppression of DNA-protein complex formation treated for 1 hr by EMSA; conditions: dose 20-40 µM
[4] = biological target: Early growth response protein 1 (Homo sapiens) (UniProt P18146); test: Inhibition of EGR-1 in TNF-alpha-stimulated human HaCaT cells assessed as decrease in IL-6 level at 20 to 40 uM pretreated for 30 mins followed by TNF-alpha stimulation measured after 6 hrs by RT-PCR analysis; conditions: dose 20-40 µM, time 390.0 min
[5] = biological target: Early growth response protein 1 (Homo sapiens) (UniProt P18146); test: Inhibition of EGR-1 in TNF-alpha-stimulated human HaCaT cells assessed as decrease in IL-31 level at 20 to 40 uM pretreated for 30 mins followed by TNF-alpha stimulation measured after 6 hrs by RT-PCR analysis; conditions: dose 20-40 µM, time 390.0 min

Measured: inhibition

Early growth response protein 1 (Homo sapiens), sequence (P18146 whole entry, looked up): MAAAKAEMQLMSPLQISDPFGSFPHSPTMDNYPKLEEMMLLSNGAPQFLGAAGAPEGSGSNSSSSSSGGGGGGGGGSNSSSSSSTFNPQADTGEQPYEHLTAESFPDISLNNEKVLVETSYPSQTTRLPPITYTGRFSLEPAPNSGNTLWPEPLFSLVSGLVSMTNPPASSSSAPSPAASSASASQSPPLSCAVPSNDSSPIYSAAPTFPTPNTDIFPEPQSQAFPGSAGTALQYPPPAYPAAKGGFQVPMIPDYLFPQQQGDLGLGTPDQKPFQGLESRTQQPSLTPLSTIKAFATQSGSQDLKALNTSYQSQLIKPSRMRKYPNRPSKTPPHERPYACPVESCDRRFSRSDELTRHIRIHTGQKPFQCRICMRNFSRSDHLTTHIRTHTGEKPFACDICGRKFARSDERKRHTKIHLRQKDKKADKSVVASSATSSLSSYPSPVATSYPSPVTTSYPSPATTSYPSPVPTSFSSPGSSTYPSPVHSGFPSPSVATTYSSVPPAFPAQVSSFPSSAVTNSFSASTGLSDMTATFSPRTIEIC

COc1ccc(C2CC(c3c(O)ccc4ccccc34)=NN2)cc1 (stereo not given)
active: [1] | [2] | [3] Dose-dependent-effect | [4] | [5]
